Assay results published in patent US9592212B2, “Use of pan-PPAR agonists for treatment of tauopathies” (Cornell University, priority 2011, dated 2017).

Key:
N171-82Q mice = settings: cited from earlier work
R6/2 mice [1] = test: Survival of R6/2 mice (Kaplan-Meier); assay type: in vivo; settings: 0.5% bezafibrate diet
Protocol: (§1) All experiments were conducted within National Institutes of Health guidelines for animal research and were approved by the Weill Cornell Medical College Animal Care and Use Committee. The animals were kept on a 12-hr light/dark cycle, with food and water available ad libitum. Mice were fed standard diet containing 0.5% bezafibrate or standard diet (Purina-Mills Richmond, Ind., USA), starting right after weaning up to 3 months of age.
R6/2 mice normally die prematurely as compared to their wild-type littermates, between the age of 70-91 days (Mangiarini et al. 1996). Symptomatic mice approaching the disease endstage were examined twice daily (morning and late afternoon) to assess when they reached end-stage of the disease, as assessed by the righting reflex or failure to eat moistened chow placed beside mice over a 24 hour period. At this point, mice were euthanized by CO2 inhalation. This day was recorded as time of death of the mice. […] In our hands, the R6/2 mice survived to 77-88 days of age, and the longest living mouse died at 90 days of age (mean=84+1.2 days). Bezafibrate treated R6/2 mice lived 20% longer than the R6/2 mice on a standard diet (mean=102+3.2 days) (FIG. 2D).

R6/2 mice [2] = test: Behavioral tests (grip strength, open field, rotarod) in R6/2 mice; assay type: in vivo; settings: 0.5% bezafibrate diet
Protocol: as §1
Experimenters were blind to the genotype during all testing, at least until the appearance of a robust behavioral phenotype in the mutants. We utilized a behavioral testing battery consisting of: rotarod, grip strength and open field. […] The latency to fall from the rod was recorded. Exploratory behavior was recorded in the open-field (45 cm×45 cm; height: 20 cm), for 10 min per day using a video tracking system (Ethovision 3.0, Noldus Technology, Attleborough, Mass., USA) and averaged over 3 days. […]
To assess muscle strength we tested the R6/2 mice and their wild-type littermates on the grip strength test (FIG. 2A). […] Motor coordination was assessed by performance on an accelerated rotarod apparatus. Latency to fall was recorded for 3 trials per weekly assessment and scores were averaged (FIG. 2C).

[3] = used in man for more than 25 years; cited from earlier work
P301S mice = test: Mitochondria characterisation in brains of P301S and wild-type mice; assay type: in vivo
From the text: Animals were generated by breeding P301S transgenic male mice with wild-type female mice obtained from Jackson Laboratory (Bar Harbor, Me., USA). Offspring were genotyped by PCR of tail DNA. P301S transgenic mice and their wild-type littermates were randomly assigned to receive either control diet (LabDiet 5002) or 0.5% bezafibrate diet (Sigma, St. Louis, Mo., USA) from 1 to 10 months of age ad libitum. The chow was pelleted by Purina-Mills (Richmond, Ind., USA). Behavioral analyses were performed at 5, 7, and 9 months of age. Histopathological and biochemical analyses were conducted at 10 months of age on the same animals. All experiments were approved by the Weill Cornell Medical College Institutional Animal Care and Use Committee.
Dissected, non-perfused frontal lobe samples (˜30-55 mg) were stored frozen at ? 80° C. until assaying. Before assays, tissue samples were thawed on ice and homogenized with Dounce-type 2 ml homogenizer (glass vessel/glass pestle). […]
The protein lysates containing equal amounts of protein were separated by SDS-PAGE, electroblotted onto a nitrocellulose membrane (BioRad, Hercules, Calif., USA), and immunoreacted with an appropriate primary antibody (see below) followed by HRP-conjugated secondary antibody (Kierkegaard Perry Labs Inc., Gaithersburg, Md., USA). […] Quantitative analysis was performed using NIH “ImageJ” software. […]

| SMILES | increase in survival (N171-82Q mice) [%] | increase in survival vs R6/2 mice on standard diet (R6/2 mice [1]) [%] | mean survival (R6/2 mice [1]; standard diet mean=84+1.2 days) | increase in grip strength compared to untreated R6/2 mice (R6/2 mice [2]) | tolerability in man [3] | mitochondrial enzymes and PGC1α in brain (P301S mice) |
| --- | --- | --- | --- | --- | --- | --- |
| CN(CC(=O)O)C(=N)N [creatine] | 19 |  |  |  |  |  |
| CC(C)(Oc1ccc(CCNC(=O)c2ccc(Cl)cc2)cc1)C(=O)O [bezafibrate] |  | 20 | 102+3.2 days | up to 2 fold | well-tolerated with few side effects | no effect |
